# From patent US5300491A, “Treatment of protozoal infection” (priority 1992, dated 1994)
# Like-named read-outs stand apart in the source and are kept apart here. Bridge positions count the residues as written; N and C are the ends. Square brackets hold non-standard residues; d marks the D form. Peptide text beside a SMILES is read from it. * marks the point of attachment. Ileψ(thiazoline)Cys = CC[C@H](C)[C@H](N)C1=N[C@H](C(=O)*)CS1; dOrn = NCCC[C@@H](N)C(=O)O
# Tested on: Entamoeba histolytica
# Assay type: cell-based
# Excerpt: E. histolytica isolates representing three distinct zymodemes (I, II or XIV) were derived from a range of geographical locations. The patients from whom the isolates were obtained were either pathogenic (i.e. presented dysentery), or non-pathogenic (i.e., presented a non-dysenteric stage of infection characterized by passing of cysts or trophozoites). The following table identifies the E. histolytica isolates in accordance with the above criteria:
# Each isolate was a xenic culture, i.e., it contained, in addition to the E. histolytica amoeba, the normally occurring patient faecal microflora. The cultures were maintained according to the method of Robinson, Trans. Roy. Soc. Trop. Med. Hyg. 62, 285-94, (1968). Bacitracin (70 I.U./mg) and its zinc salt (65 I.U./mg) were obtained from Apothekernes Laboratorium A.S (Oslo, Norway). Following microtitre-assay standardization and pilot testing of the drugs (results not presented), the following assay procedure was established. Bacitracin was screened over the range of 20.0-0.625 mg/ml by doubling dilution. 30 mg/ml bacitracin was also examined. […] The remaining wells were run as controls. An initial stock solution of 75 mg/ml bacitracin was prepared in starch-free Robinson medium (SFRM) . Subsequent to loading the first set of wells, the stock was diluted with SFRM to 50 mg/ml, which was used to prepare the remaining concentrations. […] 100 μl volumes of both drugs were then double-diluted in SFRM to provide 2.5X concentrates of the required final concentrations in the microtitre plates. 50 μl of a 25 mg% starch (BDH) solution (in SFRM) was then added to each well. 16-18 hours before the end of the required 48-hour culture period, the amoeba isolates were passaged to fresh tubes containing starch-free Robinson medium. At the end of the culture period, the amoebae were harvested in a small volume of medium and resuspended in at least 20 volumes SFRM. The suspensions were centrifuged at 1000 rpm for 5 minutes prior to re-suspension in fresh medium and counted in a modified Neubauer chamber. Amoebae were centrifuged as before and the pellet resuspended to a concentration of 2.5×10^4 /ml SFRM. 100 μl aliquots were then pipetted into respective wells to provide duplicate cultures of each isolate for each concentration assayed. The plates were then placed in an anaerobic chamber (HP11, Oxoid) at 37° C. for 24 hours. While this procedure provided sufficient starch for the amoebae, the concentration was such that at 24 hours the plates were easily read and quantitified by direct observation using an inverted microscope. Viability was assessed by the addition of Trypan blue to a final concentration of 0.1%.
# Readings from each of the studies were collected and stored until all three experiments were completed in order to reduce any bias in subsequent readings. Minimun inhibitory and minimum lethal concentrations were given in mg/ml. […]
# [1] = xenic isolate 70k, Experiment 1
# [2] = xenic isolate 70k, Experiment 2
# [3] = xenic isolate 70k, Experiment 3
# [4] = xenic isolate 116k, Experiment 1
# [5] = xenic isolate 116k, Experiment 2
# [6] = xenic isolate 116k, Experiment 3
# [7] = xenic isolate 418, Experiment 1
# [8] = xenic isolate 418, Experiment 2
# [9] = xenic isolate 418, Experiment 3
# [10] = xenic isolate 1246, Experiment 1
# [11] = xenic isolate 1246, Experiment 2
# [12] = xenic isolate 1246, Experiment 3
# [13] = xenic isolate AiDO, Experiment 1
# [14] = xenic isolate AiDO, Experiment 2
# [15] = xenic isolate AiDO, Experiment 3
# [16] = xenic isolate BiLO, Experiment 1
# [17] = xenic isolate BiLO, Experiment 3
# [18] = xenic isolate DOGO, Experiment 1
# [19] = xenic isolate DOGO, Experiment 2
# [20] = xenic isolate DOGO, Experiment 3
# [21] = xenic isolate OMAk, Experiment 1
# [22] = xenic isolate OMAk, Experiment 3
# [23] = xenic isolate Sh2, Experiment 2
# [24] = xenic isolate Sh2, Experiment 3
# [25] = xenic isolate T2k, Experiment 1
# [26] = xenic isolate T2k, Experiment 2
# [27] = xenic isolate T2k, Experiment 3
# [28] = xenic isolate URU1, Experiment 1
# [29] = xenic isolate URU1, Experiment 2
# [30] = xenic isolate URU1, Experiment 3
# [31] = xenic isolate URU19, Experiment 1
smiles,measurement,setting,value
"CC[C@H](C)[C@H](N)C1=N[C@H](C(=O)N[C@@H](CC(C)C)C(=O)N[C@H](CCC(=O)O)C(=O)N[C@H](C(=O)N[C@H]2CCCCNC(=O)[C@H](CC(N)=O)NC(=O)[C@@H](CC(=O)O)NC(=O)[C@H](Cc3cnc[nH]3)NC(=O)[C@@H](Cc3ccccc3)NC(=O)[C@H]([C@@H](C)CC)NC(=O)[C@@H](CCCN)NC2=O)[C@@H](C)CC)CS1 [Bacitracin, reference compound] ({Ileψ(thiazoline)Cys}-L[dE]IK[dOrn]I[dF]H[dD]N; lactam 4-C)",MICs,span over all xenic isolates and studies,0.63 to 10.0 mg/mL
same,Minimum Lethal Concentration (MLC),"xenic Isolate 1, single study over a narrower range of drug concentration (Table 4)",21 mg/mL
same,Minimum Lethal Concentration (MLC),"xenic Isolate C1, single study over a narrower range of drug concentration (Table 4)",24 mg/mL
same,Minimum Inhibitory Concentration (MIC),"xenic isolate 1, Experiment 1",5.0 mg/mL
same,Minimum Lethal Concentration (MLC),"xenic isolate 1, Experiment 1",30.0 mg/mL
same,Minimum Inhibitory Concentration (MIC),"xenic isolate 1, Experiment 2",10.0 mg/mL
same,Minimum Lethal Concentration (MLC),"xenic isolate 1, Experiment 2",30.0 mg/mL
same,Minimum Inhibitory Concentration (MIC),"xenic isolate 1, Experiment 3",5.0 mg/mL
same,Minimum Lethal Concentration (MLC),"xenic isolate 1, Experiment 3",30.0 mg/mL
same,Minimum Inhibitory Concentration (MIC),[1],5.0 mg/mL
same,Minimum Lethal Concentration (MLC),[1],30.0 mg/mL
same,Minimum Inhibitory Concentration (MIC),[2],5.0 mg/mL
same,Minimum Lethal Concentration (MLC),[2],20.0 mg/mL
same,Minimum Inhibitory Concentration (MIC),[3],10.0 mg/mL
same,Minimum Lethal Concentration (MLC),[3],30.0 mg/mL
same,Minimum Inhibitory Concentration (MIC),[4],10.0 mg/mL
same,Minimum Lethal Concentration (MLC),[4],30.0 mg/mL
same,Minimum Inhibitory Concentration (MIC),[5],1.25 mg/mL
same,Minimum Lethal Concentration (MLC),[5],30.0 mg/mL
same,Minimum Inhibitory Concentration (MIC),[6],1.25 mg/mL
same,Minimum Lethal Concentration (MLC),[6],30.0 mg/mL
same,Minimum Inhibitory Concentration (MIC),[7],5.0 mg/mL
same,Minimum Lethal Concentration (MLC),[7],30.0 mg/mL
same,Minimum Inhibitory Concentration (MIC),[8],0.63 mg/mL
same,Minimum Lethal Concentration (MLC),[8],20.0 mg/mL
same,Minimum Inhibitory Concentration (MIC),[9],0.63 mg/mL
same,Minimum Lethal Concentration (MLC),[9],20.0 mg/mL
same,Minimum Inhibitory Concentration (MIC),[10],2.5 mg/mL
same,Minimum Lethal Concentration (MLC),[10],30.0 mg/mL
same,Minimum Inhibitory Concentration (MIC),[11],10.0 mg/mL
same,Minimum Lethal Concentration (MLC),[11],20.0 mg/mL
same,Minimum Inhibitory Concentration (MIC),[12],0.63 mg/mL
same,Minimum Lethal Concentration (MLC),[12],20.0 mg/mL
same,Minimum Inhibitory Concentration (MIC),[13],10.0 mg/mL
same,Minimum Lethal Concentration (MLC),[13],30.0 mg/mL
same,Minimum Inhibitory Concentration (MIC),[14],2.5 mg/mL
same,Minimum Lethal Concentration (MLC),[14],30.0 mg/mL
same,Minimum Inhibitory Concentration (MIC),[15],2.5 mg/mL
same,Minimum Lethal Concentration (MLC),[15],30.0 mg/mL
same,Minimum Inhibitory Concentration (MIC),[16],5.0 mg/mL
same,Minimum Lethal Concentration (MLC),[16],30.0 mg/mL
same,Minimum Inhibitory Concentration (MIC),[17],1.25 mg/mL
same,Minimum Lethal Concentration (MLC),[17],20.0 mg/mL
same,Minimum Inhibitory Concentration (MIC),"xenic isolate C1, Experiment 1",10.0 mg/mL
same,Minimum Lethal Concentration (MLC),"xenic isolate C1, Experiment 1",30.0 mg/mL
same,Minimum Inhibitory Concentration (MIC),"xenic isolate C1, Experiment 2",5.0 mg/mL
same,Minimum Lethal Concentration (MLC),"xenic isolate C1, Experiment 2",20.0 mg/mL
same,Minimum Inhibitory Concentration (MIC),"xenic isolate C1, Experiment 3",1.25 mg/mL
same,Minimum Lethal Concentration (MLC),"xenic isolate C1, Experiment 3",20.0 mg/mL
same,Minimum Inhibitory Concentration (MIC),"xenic isolate C2, Experiment 1",2.5 mg/mL
same,Minimum Lethal Concentration (MLC),"xenic isolate C2, Experiment 1",30.0 mg/mL
same,Minimum Inhibitory Concentration (MIC),"xenic isolate C2, Experiment 2",5.0 mg/mL
same,Minimum Lethal Concentration (MLC),"xenic isolate C2, Experiment 2",20.0 mg/mL
same,Minimum Inhibitory Concentration (MIC),"xenic isolate C2, Experiment 3",2.5 mg/mL
same,Minimum Lethal Concentration (MLC),"xenic isolate C2, Experiment 3",30.0 mg/mL
same,Minimum Inhibitory Concentration (MIC),"xenic isolate DA, Experiment 1",2.5 mg/mL
same,Minimum Lethal Concentration (MLC),"xenic isolate DA, Experiment 1",30.0 mg/mL
same,Minimum Inhibitory Concentration (MIC),"xenic isolate DA, Experiment 2",5.0 mg/mL
same,Minimum Lethal Concentration (MLC),"xenic isolate DA, Experiment 2",30.0 mg/mL
same,Minimum Inhibitory Concentration (MIC),"xenic isolate DA, Experiment 3",0.63 mg/mL
same,Minimum Lethal Concentration (MLC),"xenic isolate DA, Experiment 3",20.0 mg/mL
same,Minimum Inhibitory Concentration (MIC),[18],2.5 mg/mL
same,Minimum Lethal Concentration (MLC),[18],30.0 mg/mL
same,Minimum Inhibitory Concentration (MIC),[19],2.5 mg/mL
same,Minimum Lethal Concentration (MLC),[19],20.0 mg/mL
same,Minimum Inhibitory Concentration (MIC),[20],0.63 mg/mL
same,Minimum Lethal Concentration (MLC),[20],10.0 mg/mL
same,Minimum Inhibitory Concentration (MIC),"xenic isolate GS, Experiment 1",2.5 mg/mL
same,Minimum Lethal Concentration (MLC),"xenic isolate GS, Experiment 1",30.0 mg/mL
same,Minimum Inhibitory Concentration (MIC),"xenic isolate GS, Experiment 2",1.25 mg/mL
same,Minimum Lethal Concentration (MLC),"xenic isolate GS, Experiment 2",20.0 mg/mL
same,Minimum Inhibitory Concentration (MIC),"xenic isolate GS, Experiment 3",0.63 mg/mL
same,Minimum Lethal Concentration (MLC),"xenic isolate GS, Experiment 3",30.0 mg/mL
same,Minimum Inhibitory Concentration (MIC),"xenic isolate MS, Experiment 1",5.0 mg/mL
same,Minimum Lethal Concentration (MLC),"xenic isolate MS, Experiment 1",30.0 mg/mL
same,Minimum Inhibitory Concentration (MIC),"xenic isolate MS, Experiment 2",2.5 mg/mL
same,Minimum Lethal Concentration (MLC),"xenic isolate MS, Experiment 2",20.0 mg/mL
same,Minimum Inhibitory Concentration (MIC),"xenic isolate MS, Experiment 3",1.25 mg/mL
same,Minimum Lethal Concentration (MLC),"xenic isolate MS, Experiment 3",20.0 mg/mL
same,Minimum Inhibitory Concentration (MIC),[21],2.5 mg/mL
same,Minimum Lethal Concentration (MLC),[21],30.0 mg/mL
same,Minimum Inhibitory Concentration (MIC),[22],1.25 mg/mL
same,Minimum Lethal Concentration (MLC),[22],30.0 mg/mL
same,Minimum Inhibitory Concentration (MIC),"xenic isolate SI, Experiment 1",2.5 mg/mL
same,Minimum Lethal Concentration (MLC),"xenic isolate SI, Experiment 1",30.0 mg/mL
same,Minimum Inhibitory Concentration (MIC),"xenic isolate SI, Experiment 3",2.5 mg/mL
same,Minimum Lethal Concentration (MLC),"xenic isolate SI, Experiment 3",20.0 mg/mL
same,Minimum Inhibitory Concentration (MIC),[23],5.0 mg/mL
same,Minimum Lethal Concentration (MLC),[23],20.0 mg/mL
same,Minimum Inhibitory Concentration (MIC),[24],2.5 mg/mL
same,Minimum Lethal Concentration (MLC),[24],30.0 mg/mL
same,Minimum Inhibitory Concentration (MIC),[25],2.5 mg/mL
same,Minimum Lethal Concentration (MLC),[25],30.0 mg/mL
same,Minimum Inhibitory Concentration (MIC),[26],2.5 mg/mL
same,Minimum Lethal Concentration (MLC),[26],30.0 mg/mL
same,Minimum Inhibitory Concentration (MIC),[27],0.63 mg/mL
same,Minimum Lethal Concentration (MLC),[27],30.0 mg/mL
same,Minimum Inhibitory Concentration (MIC),"xenic isolate T4, Experiment 1",5.0 mg/mL
same,Minimum Lethal Concentration (MLC),"xenic isolate T4, Experiment 1",30.0 mg/mL
same,Minimum Inhibitory Concentration (MIC),"xenic isolate T4, Experiment 2",2.5 mg/mL
same,Minimum Lethal Concentration (MLC),"xenic isolate T4, Experiment 2",30.0 mg/mL
same,Minimum Inhibitory Concentration (MIC),"xenic isolate T4, Experiment 3",0.63 mg/mL
same,Minimum Lethal Concentration (MLC),"xenic isolate T4, Experiment 3",30.0 mg/mL
same,Minimum Inhibitory Concentration (MIC),"xenic isolate T6, Experiment 1",2.5 mg/mL
same,Minimum Lethal Concentration (MLC),"xenic isolate T6, Experiment 1",30.0 mg/mL
same,Minimum Inhibitory Concentration (MIC),"xenic isolate T6, Experiment 2",2.5 mg/mL
same,Minimum Lethal Concentration (MLC),"xenic isolate T6, Experiment 2",20.0 mg/mL
same,Minimum Inhibitory Concentration (MIC),"xenic isolate T6, Experiment 3",2.5 mg/mL
same,Minimum Lethal Concentration (MLC),"xenic isolate T6, Experiment 3",20.0 mg/mL
same,Minimum Inhibitory Concentration (MIC),[28],2.5 mg/mL
same,Minimum Lethal Concentration (MLC),[28],30.0 mg/mL
same,Minimum Inhibitory Concentration (MIC),[29],2.5 mg/mL
same,Minimum Lethal Concentration (MLC),[29],20.0 mg/mL
same,Minimum Inhibitory Concentration (MIC),[30],1.25 mg/mL
same,Minimum Lethal Concentration (MLC),[30],30.0 mg/mL
same,Minimum Inhibitory Concentration (MIC),[31],2.5 mg/mL
same,Minimum Lethal Concentration (MLC),[31],30.0 mg/mL
